Measurements reported in US20070141571A1, “Diagnostics and therapeutics for diseases associated with endothelial differentiation, sphingolipid g-protein-coupled receptor 6(edg6)” (BAYER HEALTHCARE AG, priority 2003, published 2007).

Columns and labels:
[1] = tested on: HEL/EDG6 platelet-like particles; assay: PF4 release from platelet-like particles; assay type: cell-based, human; conditions: 100 nM PMA or 50 μM ADP 10 min; 0.5 units/ml thrombin 2 min; data not shown
Protocol: During propagation of HEL/EDG6, we observed an accumulation of small particles in the culture supernatant. They were harvested by two-step sedimentation centrifugation and analyzed. […] In order to investigate if the platelet-like particles were functional, they were stimulated and the release of Platelet Factor IV (PF4) was measured as a platelet functional marker. […] The low sensitivity to ADP raised a question about the full functionality of the particles as platelets. In order to examine whether it is due to lack of the appropriate ADP receptors, we performed RT-PCR analysis. There are two ADP receptors identified in platelets, ubiquitous P2Y1, and platelet-specific P2Y12. We detected P2Y1 expression in HEL cells stably transformed with an empty vector (HEL/CV), HEL/EDG6, and platelets. In contrast, P2Y12 was detected in HEL/EDG6 and platelets, but not in HEL/CV. […] The low responsiveness of the particles to ADP thus is likely due to desensitization of the ADP receptors, since the particles were prepared from a long-term culture and had been inevitably exposed to cellular components during culture. Alternatively the density of the particles may not have been high enough to exert a positive feedback amplified by mediators released from nearby particles.
Isolation of platelets and platelet-like particles: Blood from healthy donors was collected into centrifuge tubes containing 20 mM sodium dyhydrogenphosphate dehydrate, 17 mM citric acid, 90 mM sodium citrate, and 13 mM Dextrose. HEL/S1P4 cells were cultured until cells released cytoplasmic particles (typically 10-18 days). Preparations were centrifuged at 200 g for 15 minutes. Supernatants obtained were centrifuged at 1600 g for 15 minutes. Sediments containing platelets or platelet-like particles were used in the experiments.
PF4 release: Platelet-like particles were suspended in Dulbecco's modified Eagle medium (DMEM) and stimulated with 100 nM PMA or 50 μM ADP for 10 minutes. […] Platelet factor 4 in supernatants was measured with ZymutestPF4 enzyme-linked immunosorbent assay (Hyphen BioMed, France).

[2] = target: T1, Edg-6 (Homo sapiens, UniProt O95977); conditions: cited from earlier work; for increase in cytosolic Ca(2+) concentration: Edg-6-transfected CHO cells compared with vector-transfected cells
T1 construct: host or cells: Edg-6-transfected Chinese hamster ovary (CHO) cells and K562 cells
T1 sequence (O95977 1-384): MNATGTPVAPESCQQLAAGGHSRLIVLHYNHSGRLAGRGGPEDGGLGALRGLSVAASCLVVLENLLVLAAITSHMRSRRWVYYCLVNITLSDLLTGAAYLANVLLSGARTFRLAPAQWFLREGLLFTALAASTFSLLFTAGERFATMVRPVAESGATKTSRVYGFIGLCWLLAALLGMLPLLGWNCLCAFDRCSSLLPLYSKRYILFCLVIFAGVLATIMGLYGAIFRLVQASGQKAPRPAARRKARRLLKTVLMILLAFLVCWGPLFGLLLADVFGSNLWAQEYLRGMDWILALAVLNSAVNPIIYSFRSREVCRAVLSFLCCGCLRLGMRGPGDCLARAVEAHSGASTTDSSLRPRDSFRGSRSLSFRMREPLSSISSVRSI

[3] = target: T1, Edg-6; conditions: Edg-6-transfected CHO and K562 cells; cited from earlier work
[4] = tested on: HEL/EDG6 cells; assay: morphogenesis assay, HEL/EDG6; assay type: cell-based, human; conditions: 72 hours
Protocol: (§1) To obtain an insight into potential mechanisms, we treated HEL/EDG6 and HEL/CV with a variety of cytoskeletal modulators in the presence of PMA. […] To test if suppression of the Rho-kinase pathway is responsible for the formation of cytosolic extensions, the cells were treated with C3 exoenzyme, a Rho inhibitor, before PMA treatment. […] Alternatively, activation of other Rho family GTPases might cause the process formation, since reciprocal regulation between Rho and Rac/Cdc42 is observed in some cell types [E. E. Sandera, et al., (1999)]. Activation of Rho, Rac, and Cdc42, were investigated in HEL/CV and HEL/EDG6 after serum starvation and subsequent stimulation with S1P.

[5] = tested on: HEL/CV cells; assay: morphogenesis assay, HEL/CV; assay type: cell-based, human; conditions: with PMA 10 nM, Y27632 30 μM or C3 exoenzyme 3 μg/ml, 72 hours
Protocol: as §1

[6] = tested on: HEL cells; assay: morphogenesis assay, HEL parental cells; assay type: cell-based, human; conditions: PMA 10 nM, 72 hours
Source text: Small particles (arrowhead) and a particle about to bud off from the cytosolic extension (arrow) are seen in HEL/S1P4 treated with PMA.
As reported, HEL parental cells develop into polyploidal large adherent cells with PMA treatment. […] Depositions of small particles and particles about to bud off from the end of the projections were also observed (FIG. 7). […] The observed prominent change of phenotype, thus can potentially be attributed to a rapid accumulation of S1P after treatment of PMA. As PMA is a pleiotropic substance, it is not easy to elucidate direct roles of sphingosine kinase in the phenomena.
Morphogenesis assay: Ten million cells were plated on a 24-well plate with or without 30 μM of the Rho-kinase inhibitor Y27632 (Calbiochem, CA). PMA (10 nM final) was added to the culture 30 minutes after plating. Cells were cultured for 72 hours and photographed. For studies using C3 exoenzyme, 2×10^5 cells in 0.5 ml culture medium were plated on a 24-well plate with or without 3 μg/ml of C3 exsoenzyme (Upstate, N.Y.), and cultured overnight. Fresh culture medium containing PMA and C3 exoenzyme was added to each well to give final PMA and C3 exoenzyme concentrations at 10 nM and 3 μg/ml, respectively. Cells were cultured for 72 hours and photographed.

[7] = tested on: HEL/CV cells; assay: Rho, Rac and cdc42 assays, HEL/CV; assay type: cell-based, human; conditions: serum starvation, 1 μM S1P 1 minute
Protocol: as §1
(§2) Rho, Rac and cdc42 assays: Cells (5×10^6 for Cdc42 and Rac, 1×10^7 for Rho) were harvested and lysed with 50 mM Tris (pH 7.5), 100 mM NaCl, 1% Triton X-100, 5 mM MgCl2 containing protease inhibitors (Complete™, EDTA-free, Roche Diagnostics, Germany). Cell lysates were clarified by centrifugation at 15000 g at 4° C. for 5 minutes, and incubated with PAK-1 PBD agarose, Rhotekin RBD agarose (Upstate, N.Y.) and GST-WASP GBD beads idndly provided by Tatsuo Kinashi, Kyoto University) at 4° C. for 45 minutes with constant rotation. […] The amounts of Rho, Rac, cdc42, and WASP in 20 μg of whole cell lysates were also analyzed by Western Blot. After incubating with HRP-conjugated secondary antibodies, the blots were developed with ECL-Plus (Amersham Biosciences, UK). For examination of Rho, Rac and cdc42 responses to S1P treatment, cells were maintained in RPMI1640 containing 0.1% fatty-acid free BSA (Sigma) overnight. Cells were harvested and suspended in PBS, and stimulated with 1 μM S1P at 37° C. for 1 minute before cell lysis. Rho, Rac, and cdc42 in 20 μg of the whole cell lysates were also analyzed by Western blot for examination of protein expression. WASP in 20 μg of the whole cell lysates was detected using an anti-WASP antibody (Sigma, Mo.).

[8] = tested on: HEL/EDG6 cells; assay: Rho, Rac and cdc42 assays, HEL/EDG6; assay type: cell-based, human; conditions: HEL/EDG6, serum starvation, 1 μM S1P 1 minute
Protocol: as §1, §2

[9] = tested on: CD34+ hematopoietic progenitor cells; assay: megakaryocyte colony formation assay; assay type: cell-based, human
Protocol: Mean colony number per well of CD41 positive (CFU-MK) and negative (non-MK) colonies are plotted with SD (n=4 to 8, left panels). […] The experiment was repeated twice with each progenitor and obtained similar results. # • (B) Megakaryocyte differentiation was induced for 12 days from the CD34^+ progenitor cells and the cells were separated for CD41 expression. RNAs from non-differentiated cells (Day 0), differentiated cells (Day 12), and peripheral platelets were analyzed for expression of S1P receptors by RT-PCR. Expression of 2-microglobulin is shown as an internal control.
S1P was added to a megakaryocyte colony formation assay using CD34^+ hematopoietic progenitor cells in semi-solid culture. […] In order to examine the expression pattern of each S1P receptor during the in vitro maturation of megakaryocytes, CD34^+ progenitor cells were cultured in a liquid medium defined for megakaryocyte development, sorted for CD41 expression on day 12 of the culture, and subjected to RT-PCR analysis. Expression of S1P5 receptor in CD34^+ cells on day 0 was low and S1P1, S1P2, S1P3, and EDG6 were not detectable after 40 cycles (FIG. 6B). […] The pattern matched, although with different relative band intensities for EDG6 and S1P2, with the one seen in the platelet sample. […] The exact mechanisms by which S1P affects the differentiation however, remain to be elucidated. Among the receptors for S1P, we were most interested in the function of EDG6 in megakaryocytopoiesis, because EDG6 is expressed in the lung, and the lung is the second most prominent site of platelet production in body with a large population of terminally differentiated megakaryocytes in pulmonary microvessels. […]
Colony formation assay and preparation of CD41^+ cells: Cord blood CD34^+ cells and bone marrow CD34^+ cells (Bio Whittaker, Md.) were cultured in serum-free Iscove's modified Dulbecco's medium for 2 days. […] The chambers were incubated at 37° C. in a 5% CO2 atmosphere for 12 days then megakaryocyte colonies (CFU-MK) were stained for CD41 and scored following the manufacturer's procedure. […]

Nc1ncnc2c1ncn2[C@@H]1O[C@H](COP(=O)(O)OP(=O)(O)O)[C@@H](O)[C@H]1O [ADP]
release of Platelet Factor IV (PF4) [1]: only minor amounts

CCCCCCCCCCCCC/C=C/[C@@H](O)[C@@H](N)COP(=O)([O-])OCC[N+](C)(C)C [SPC]
increase in cytosolic Ca(2+) concentration [2]: clearly enhanced | displacement of [(3)H]S1P binding [3]: displaced the [(3)H]S1P binding

pertussis toxin
effect on lipid-induced actions (S1P, SPC) ([2]; CHO and K562 cells expressing Edg-6, pertussis toxin treatment): markedly suppressed

C[C@@H](N)[C@H]1CC[C@H](C(=O)Nc2ccncc2)CC1 [Y27632]
cytosolic extensions / morphology with cytoskeletal modulator ([4]; HEL/EDG6, with PMA 10 nM, Y27632 30 μM or C3 exoenzyme 3 μg/ml): did not induce any further effect | cytosolic extensions / morphology with cytoskeletal modulator [5]: induced cytosolic extensions

CCCCCCCCCCCCCC(=O)O[C@@H]1[C@@H](C)[C@@]2(O)[C@@H](C=C(CO)C[C@]3(O)C(=O)C(C)=C[C@@H]23)[C@@H]2C(C)(C)[C@]12OC(C)=O [PMA]
release of Platelet Factor IV (PF4) [1]: significant amounts | cell morphology after PMA treatment ([4]; HEL/EDG6, PMA 10 nM): formation of polyploidal large adherent cells with extended cytoplasmic projections resembling megakaryocyte processes | cell morphology after PMA treatment [6]: induced large adherent cells

lysophosphatidic acid [LPA]
increase in cytosolic Ca(2+) concentration [2]: without change | displacement of [(3)H]S1P binding [3]: inactive

thrombin
release of Platelet Factor IV (PF4) [1]: significant amounts

CCCCCCCCCCCCC/C=C/[C@@H](O)[C@@H](N)COP(=O)(O)O [S1P, sphingosine 1-phosphate]
GTP-Rac [7]: up-regulation | GTP-Cdc42 increase ([7]; data not shown): not in HEL/CV cells | GTP-Rho decrease ([7]; data not shown): not in HEL/CV cells | increase in cytosolic Ca(2+) concentration [2]: clearly enhanced | GTP-Rac [8]: up-regulation | GTP-Cdc42 ([8]; data not shown): increased | GTP-Rho ([8]; data not shown): decreased | displacement of [(3)H]S1P binding [3]: displaced the [(3)H]S1P binding | number of megakaryocyte colony forming units (CFU-MK) ([9]; 10 μM S1P at beginning of culture, CD34+ cells from bone marrow and cord blood, 12 days): significantly reduced | CFU-nonMK numbers ([9]; 10 μM S1P, CD34+ cells from bone marrow and cord blood): remained unchanged or increased slightly | % CFU-MK ([9]; 10 μM S1P, cord blood or bone marrow CD34+ cells, Student's t-test): Significantly lower
